Residues, ends and D or L forms follow the SMILES beside them.
B1: Carboxypeptidase Y: known enzyme described in EP 278787A1, purified enzyme manufactured by Sigma (protein, UniProt P00729 112-532, looked up)
Carboxypeptidase Y: KIKDPKILGIDPNVTQYTGYLDVEDEDKHFFFWTFESRNDPAKDPVILWLNGGPGCSSLTGLFFELGPSSIGPDLKPIGNPYSWNSNATVIFLDQPVNVGFSYSGSSGVSNTVAAGKDVYNFLELFFDQFPEYVNKGQDFHIAGESYAGHYIPVFASEILSHKDRNFNLTSVLIGNGLTDPLTQYNYYEPMACGEGGEPSVLPSEECSAMEDSLERCLGLIESCYDSQSVWSCVPATIYCNNAQLAPYQRTGRNVYDIRKDCEGGNLCYPTLQDIDDYLNQDYVKEAVGAEVDHYESCNFDINRNFLFAGDWMKPYHTAVTDLLNQDLPILVYAGDKDFICNWLGNKAWTDVLPWKYDEEFASQKVRNWTASITDEVAGEVKSYKHFTYLRVFNGGHMVPFDVPENALSMVNEWIHGGFSL

Tests used:
[1] = system: peptide-forming enzyme from Sphingobacterium sp. strain FERM BP-8124; experiment: Production of L-alanyl-L-glutamine using SP-Sepharose HP enzyme fraction of Sphingobacterium sp.; assay type: biochemical; conditions: 10 μl SP-Sepharose HP fraction + 90 μl buffer with 111 mM L-alanine methyl ester hydrochloride, 222 mM L-glutamine, pH 9.0, 25° C., 120 minutes
Description: As a result, 73 mM of L-alanyl-L-glutamine was formed in the enzyme-added lot.

[2] = system: Sphingobacterium sp. strain FERM BP-8124 microbial cells; experiment: Production of L-alanyl-L-glutamine using microbial cells of Sphingobacterium sp.; assay type: cell-based; conditions: 0.1 mL 100 g/L cell suspension + 0.1 mL buffer with 200 mM L-alanine methyl ester hydrochloride, 400 mM L-glutamine, pH 9.0, 25° C., 120 minutes
Description: (§1) 22, 2002). […] 1 ml of this culture broth was then added to the aforementioned medium (50 ml/500 mL Sakaguchi flask) and cultured at 30° C. for 18 hours. Following completion of the culturing, the microbial cells were separated from the culture broth by centrifugation and suspended in 0.1 M borate buffer (pH 9.0) containing 10 mM EDTA at a concentration of 100 g/L as wet microbial cells. […] The resulting 0.2 mL of mixture was allowed to react at 25° C. for 120 minutes. The concentration of L-alanyl-L-glutamine formed at this time was 62 mM.
as §1, with “After” for “Following”, “culture,” for “culturing,”, “minutes.” for “minutes. The concentration of L-alanyl-L-glutamine formed at this time was 62 mM.”

[3] = system: peptide-forming enzyme from Empedobacter brevis strain FERM BP-8113; experiment: Production of L-alanyl-L-glutamine from L-alanine methyl ester and L-glutamine with the Mono S fraction enzyme; conditions: L-alanine methyl ester hydrochloride 100 mM, 18° C., 2 hours
[4] = system: peptide-forming enzyme from Empedobacter brevis strain FERM BP-8113; experiment: Substrate specificity of enzyme (peptide production from carboxy and amine components); assay type: biochemical; conditions: L-amino acid amide hydrochloride 100 mM as carboxy component, L-amino acid 150 mM, pH 9.0, 25° C., 3 hours
[5] = system: enzyme derived from Sphingobacterium sp. strain FERM BP-8124; experiment: Substrate specificity of enzyme derived from Sphingobacterium sp.; assay type: biochemical; conditions: Table 15-4; carboxy component 100 mM, amine component 150 mM, 0.33 units enzyme, pH 9.0, 25° C., 1.5 hours
[6] = system: Empedobacter brevis strain FERM BP-8113 microbial cells; experiment: Production of peptide using microbial cells of Empedobacter brevis; assay type: cell-based; conditions: 1 mL 100 g/L cell suspension + 1 mL buffer with 200 mM carboxy component, 400 mM amino acid, 10 mM EDTA, pH 9.0, 18° C., 2 hours
Description: A 50 mL medium (pH 6.2) containing 5 grams (g) of glucose, 5 g of ammonium sulfate, 1 g of monopotassium phosphate, 3 g of dipotassium phosphate, 0.5 g of magnesium sulfate, 10 g of yeast extract and 10 g of peptone in 1 liter (L) was transferred to a 500 mL Sakaguchi flask and sterilized at 115° C. for 15 minutes.
Microbial cells were collected by centrifuging (10,000 rounds per minute (rpm), 15 minutes) the culture broth obtained in Example 1, followed by suspending them to a concentration of 100 g/L in 100 mM borate buffer (pH 9.0) containing 10 mM EDTA. After respectively adding 1 mL of the suspension to 1 mL each of 100 mM borate buffer solutions (pH 9.0) containing 10 mM EDTA, 200 mM of the following carboxy components, and 400 mM of the following amino acids to make a final volume of 2 mL, the reaction was carried out at 18° C. for 2 hours.

[7] = system: peptide-forming enzyme from Empedobacter brevis strain FERM BP-8113; experiment: Substrate specificity of enzyme (peptide production from carboxy and amine components); assay type: biochemical; conditions: L-amino acid methyl ester hydrochloride 100 mM, 150 mM L-glutamine, pH 9.0, 25° C., 3 hours
Source text: Ester specificity was examined in the case of using L-amino acid ester for the carboxy component. […] HCl represents hydrochloride in Table 4.
Peptide production was examined in the case of using L-alanine methyl ester for the carboxy component and using various L-amino acids for the amine component.
Peptide production was examined in the case of using various types of L-amino acid methyl esters for the carboxy component and using L-glutamine for the amine component. […] Furthermore, Tween-80 was added to the reaction system to a final concentration of 0.1% in the case of using L-Trp-OMe and L-Tyr-OMe.

[8] = Comparison of ability to catalyze peptide formation with known enzymes; assay type: biochemical; conditions: enzyme of present invention = 100.0
Source text: The peptide-forming ability of the present enzyme was compared with that of known enzymes. Carboxypeptidase Y described in EP 278787A1 and the thiol endopeptidases (ficin, papain, bromelain, and chymopapain) described in EP 359399B1 were used as the known enzymes, and they were used in the form of purified enzymes (manufactured by Sigma). The enzyme uniformly purified in Example 3 was used as a source of the present enzyme of the present invention. […] As has been described above, the present enzyme was verified to have an extremely high peptide production rate unlike any known enzyme in the prior art. Furthermore, the enzyme of the present invention is a dimer having a molecular weight of about 75,000. In contrast, the molecular weight of the carboxypeptidase Y has been reported to be about 61,000, while the molecular weight of thiol endopeptidase has been reported to be about 23,000 to 36,000. Thus, the L-alanyl-L-glutamine production rate of the enzyme of the present invention as compared to those of the carboxypeptidase Y and the thiol endopeptidase is even greater when the rate is expressed per molecular weight than when it is expressed per unit weight as indicated in the examples.

Molecule | L-alanyl-L-glutamine formed [1] | concentration of L-alanyl-L-glutamine formed [2] | L-Ala-L-Gln ([3]; L-glutamine 100 mM) | L-Ala-L-Gln ([3]; L-glutamine 110 mM) | L-Ala-L-Gln ([3]; L-glutamine 120 mM) | L-Ala-L-Gln ([3]; L-glutamine 130 mM) | L-Ala-L-Gln ([3]; L-glutamine 150 mM) | L-Ala-L-Gln ([3]; L-glutamine 200 mM) | Formed peptide [4] | Produced peptide [5] | Formed peptide [6] | Formed peptide [7] | Ratio of L-Ala-L-Gln production rate per enzyme unit weight [8]
C[C@H](N)C(=O)N[C@@H](CCC(N)=O)C(=O)O [L-Ala-L-Gln, L-alanyl-L-glutamine] (H-Ala-Gln-OH) | 73 mM | 62 mM | 68.2 mM | 72.1 mM | 73.3 mM | 75.1 mM | 75.5 mM | 82.0 mM | 7.6 mM | 0.3 mM | 68.0 mM | 74.6 mM | 
B1 |  |  |  |  |  |  |  |  |  |  |  |  | 0.0191
